According to patent publication US9763445B2, “Safened herbicidal compositions comprising a pyridine carboxylic acid herbicide” (Dow AgroSciences, LLC, priority 2014, dated 2017):

Columns and labels:
[1] = test system: purple deadnettle (LAMPU); experiment: Postemergence greenhouse trial, % visual injury on purple deadnettle; type: in vivo, Lamium purpureum
Method in brief: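 Herbicide rates g ae/ha, safener (cloquintocet-mexyl) rates g ai/ha; spray carrier 1.5% v/v crop oil concentrate, 187 L/ha, 2nd–3rd leaf stage. Rating: visual % injury at 20-22 d.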

Russian thistle (SASKR) = experiment: Postemergence greenhouse trial, % visual injury on Russian thistle; type: in vivo, Salsola kali
pigweed (AMARE) = experiment: Postemergence greenhouse trial, % visual injury on pigweed; type: in vivo, Amaranthus retroflexus; details: for % visual injury, Ob / % visual injury, observed (Ob): AMARE
Method in brief: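 Postemergence greenhouse spray (187 L/ha, 1.5% v/v Agri-dex in water, acetone/DMSO stocks) on plants at second–third true leaf stage, ~23/22 °C, 14 h photoperiod; herbicides in g ae/ha, safener cloquintocet-mexyl in g ai/ha. Visual injury 0–100% versus solvent-blank controls after 20–22 d; Colby's equation gave expected mixture effects.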

spring barley (HORVS) = experiment: Postemergence greenhouse trial, % visual injury on spring barley; type: in vivo, Hordeum vulgare; details: HORVS
Method in brief: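 Greenhouse crops at second to third true leaf stage sprayed postemergence at 187 L/ha with herbicide (g ae/ha) plus safener (g ai/ha) in acetone/DMSO diluted into 1.5% v/v Agri-dex. Injury scored visually versus solvent-blank controls after 20-22 d, 0 (none) to 100% (complete kill); expected mixture effects by Colby's equation.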

[2] = compound 0 g/ha, CQC-m 4.375 g/ha
[3] = compound 0 g/ha, CQC-m 8.75 g/ha
[4] = compound 0 g/ha, CQC-m 17.5 g/ha

CCCCCC(C)OC(=O)COc1ccc(Cl)c2cccnc12 (stereo not drawn) [CQC-m, cloquintocet-mexyl, reference compound]
0%: % visual injury, Ob ([1]; LAMPU, compound 0, CQC-m 4.375 g/ha) | % visual injury, Ob ([1]; LAMPU, compound 0, CQC-m 8.75 g/ha) | % visual injury, Ob ([1]; LAMPU, compound 0, CQC-m 17.5 g/ha) | % visual injury, Ob ([1]; LAMPU, compound 0, CQC-m 35 g/ha) | % visual injury, Ob ([1]; LAMPU, compound 0, CQC-m 70 g/ha) | % visual injury, Ob ([1]; LAMPU, compound 0 g/ha, CQC-m 4.375 g/ha) | % visual injury, Ob ([1]; LAMPU, compound 0 g/ha, CQC-m 8.75 g/ha) | % visual injury, Ob ([1]; LAMPU, compound 0 g/ha, CQC-m 17.5 g/ha) | % visual injury, Ob ([1]; LAMPU, compound 0 g/ha, CQC-m 35 g/ha) | % visual injury, Ob ([1]; LAMPU, compound 0 g/ha, CQC-m 70 g/ha) | % visual injury, Ob ([1]; alone, 4.375 g/ha) | % visual injury, Ob ([1]; alone, 8.75 g/ha) | % visual injury, Ob ([1]; alone, 17.5 g/ha) | % visual injury, Ob ([1]; alone, 35 g/ha) | % visual injury, Ob ([1]; alone, 70 g/ha) | % visual injury, Ob (Russian thistle (SASKR); SASKR, 4.375 g/ha, applied alone) | % visual injury, Ob (Russian thistle (SASKR); SASKR, 8.75 g/ha, applied alone) | % visual injury, Ob (Russian thistle (SASKR); SASKR, 17.5 g/ha, applied alone) | % visual injury, Ob (Russian thistle (SASKR); SASKR, 35 g/ha, applied alone) | % visual injury, Ob (Russian thistle (SASKR); SASKR, 70 g/ha, applied alone) | % visual injury, Ob (Russian thistle (SASKR); SASKR, compound 0, CQC-m 4.375 g/ha) | % visual injury, Ob (Russian thistle (SASKR); SASKR, compound 0, CQC-m 8.75 g/ha) | % visual injury, Ob (Russian thistle (SASKR); SASKR, compound 0, CQC-m 17.5 g/ha) | % visual injury, Ob (Russian thistle (SASKR); SASKR, compound 0, CQC-m 35 g/ha) | % visual injury, Ob (Russian thistle (SASKR); SASKR, compound 0, CQC-m 70 g/ha) | % visual injury, Ob (Russian thistle (SASKR); SASKR, compound 0 g/ha, CQC-m 4.375 g/ha) | % visual injury, Ob (Russian thistle (SASKR); SASKR, compound 0 g/ha, CQC-m 8.75 g/ha) | % visual injury, Ob (Russian thistle (SASKR); SASKR, compound 0 g/ha, CQC-m 17.5 g/ha) | % visual injury, Ob (Russian thistle (SASKR); SASKR, compound 0 g/ha, CQC-m 35 g/ha) | % visual injury, Ob (Russian thistle (SASKR); SASKR, compound 0 g/ha, CQC-m 70 g/ha) | % visual injury, observed (Ob) (Russian thistle (SASKR); SASKR, compound 8 0 + CQC-m 4.375 g/ha) | % visual injury, observed (Ob) (Russian thistle (SASKR); SASKR, compound 8 0 + CQC-m 8.75 g/ha) | % visual injury, observed (Ob) (Russian thistle (SASKR); SASKR, compound 8 0 + CQC-m 17.5 g/ha) | % visual injury, observed (Ob) (Russian thistle (SASKR); SASKR, compound 8 0 + CQC-m 35 g/ha) | % visual injury, observed (Ob) (Russian thistle (SASKR); SASKR, compound 8 0 + CQC-m 70 g/ha) | % visual injury, Ob (Russian thistle (SASKR); alone, 4.375 g/ha) | % visual injury, Ob (Russian thistle (SASKR); alone, 8.75 g/ha) | % visual injury, Ob (Russian thistle (SASKR); alone, 17.5 g/ha) | % visual injury, Ob (Russian thistle (SASKR); alone, 35 g/ha) | % visual injury, Ob (Russian thistle (SASKR); alone, 70 g/ha) | % visual injury, Ob (pigweed (AMARE); 4.375 g/ha, applied alone) | % visual injury, Ob (pigweed (AMARE); 8.75 g/ha, applied alone) | % visual injury, Ob (pigweed (AMARE); 17.5 g/ha, applied alone) | % visual injury, Ob (pigweed (AMARE); 35 g/ha, applied alone) | % visual injury, Ob (pigweed (AMARE); 70 g/ha, applied alone) | % visual injury, Ob (pigweed (AMARE); compound 0, CQC-m 4.375 g/ha) | % visual injury, Ob (pigweed (AMARE); compound 0, CQC-m 8.75 g/ha) | % visual injury, Ob (pigweed (AMARE); compound 0, CQC-m 17.5 g/ha) | % visual injury, Ob (pigweed (AMARE); compound 0, CQC-m 35 g/ha) | % visual injury, Ob (pigweed (AMARE); compound 0, CQC-m 70 g/ha) | % visual injury, Ob (pigweed (AMARE); [2]) | % visual injury, Ob (pigweed (AMARE); [3]) | % visual injury, Ob (pigweed (AMARE); [4]) | % visual injury, Ob (pigweed (AMARE); compound 0 g/ha, CQC-m 35 g/ha) | % visual injury, Ob (pigweed (AMARE); compound 0 g/ha, CQC-m 70 g/ha) | % visual injury, observed (Ob) (pigweed (AMARE); safener alone 2.5 g/ha) | % visual injury, observed (Ob) (pigweed (AMARE); safener alone 5 g/ha) | % visual injury, observed (Ob) (pigweed (AMARE); safener alone 10 g/ha) | % visual injury, observed (Ob) (pigweed (AMARE); safener alone 20 g/ha) | pest or weed control at 4.375 g/ha (pigweed (AMARE); Amaranthus retroflexus, post-emergence, alone, 4.375 g/ha, read-out: % visual injury, Ob) | pest or weed control at 8.75 g/ha (pigweed (AMARE); Amaranthus retroflexus, post-emergence, alone, 8.75 g/ha, read-out: % visual injury, Ob) | pest or weed control at 17.5 g/ha (pigweed (AMARE); Amaranthus retroflexus, post-emergence, alone, 17.5 g/ha, read-out: % visual injury, Ob) | pest or weed control at 20 g/ha (pigweed (AMARE); Amaranthus retroflexus, post-emergence, alone, 20 g/ha, read-out: % visual injury, Ob) | pest or weed control at 35 g/ha (pigweed (AMARE); Amaranthus retroflexus, post-emergence, alone, 35 g/ha, read-out: % visual injury, Ob) | pest or weed control at 40 g/ha (pigweed (AMARE); Amaranthus retroflexus, post-emergence, alone, 40 g/ha, read-out: % visual injury, Ob) | pest or weed control at 70 g/ha (pigweed (AMARE); Amaranthus retroflexus, post-emergence, alone, 70 g/ha, read-out: % visual injury, Ob) | pest or weed control at 80 g/ha (pigweed (AMARE); Amaranthus retroflexus, post-emergence, alone, 80 g/ha, read-out: % visual injury, Ob) | % visual injury, Δ (pigweed (AMARE); alone, 35 g/ha) | % visual injury, Ob (spring barley (HORVS); 4.375 g/ha, applied alone) | % visual injury, Ob (spring barley (HORVS); 8.75 g/ha, applied alone) | % visual injury, Ob (spring barley (HORVS); 17.5 g/ha, applied alone) | % visual injury, Ob (spring barley (HORVS); 35 g/ha, applied alone) | % visual injury, Ob (spring barley (HORVS); 70 g/ha, applied alone) | % visual injury, Ob (spring barley (HORVS); compound 0, CQC-m 4.375 g/ha) | % visual injury, Ob (spring barley (HORVS); compound 0, CQC-m 8.75 g/ha) | % visual injury, Ob (spring barley (HORVS); compound 0, CQC-m 17.5 g/ha) | % visual injury, Ob (spring barley (HORVS); compound 0, CQC-m 35 g/ha) | % visual injury, Ob (spring barley (HORVS); compound 0, CQC-m 70 g/ha) | % visual injury, Ob (spring barley (HORVS); [2]) | % visual injury, Ob (spring barley (HORVS); [3]) | % visual injury, Ob (spring barley (HORVS); [4]) | % visual injury, Ob (spring barley (HORVS); compound 0 g/ha, CQC-m 35 g/ha) | % visual injury, Ob (spring barley (HORVS); compound 0 g/ha, CQC-m 70 g/ha) | % visual injury, observed (Ob) (spring barley (HORVS); compound 8 0 + CQC-m 4.375 g/ha)
